Data on five molecules can be found in article PMC9488889, “Insight into mode-of-action and structural determinants of the compstatin family of clinical complement inhibitors” (Nature Communications, 2022).

Usually Kd stands for a measure of binding affinity in units of concentration.

Read-outs that look alike come from different tables or passages of the source. Bridge positions count the residues as written; N and C are the ends. Square brackets hold non-standard residues; d marks the D form. Peptide text beside a SMILES is read from it. Trp(1-Me) = Cn1cc(C[C@H](N)C(=O)O)c2ccccc21; NMeI = CC[C@H](C)[C@H](NC)C(=O)O; Sar = CNCC(=O)O

In the assay the target is T1, C3b (Homo sapiens, UniProt P01024).
T1 construct: the α’NT, MG6^α−8, anchor, and C-terminal complement (CTC) domains of the α-chain that are all shared between C3c and C3b; purchased Complement Technology (Tyler, TX, USA)
Briefly: SPR kinetic binding studies on immobilized C3b. Here is the method: All compstatin analogues were characterized concerning affinity and kinetic profiles by surface plasmon resonance (SPR) using a Biacore T200 instrument (Cytiva, Piscataway, USA). Experiments were run at 25 °C in HBST buffer (10 mM HEPES, 150 mM NaCl, 0.05% Tween-20, pH 7.4). C3b was immobilized on a carboxymethyl dextran hydrogel chip (CMD200; XanTec, Düsseldorf, Germany) using standard amine coupling in sodium acetate buffer pH 4.5 at a flow rate of 10 µl/min. Immobilization densities of 8000 and 4000 resonance units (RU) were achieved on separate flow cells. A reference flow cell was activated with the same method (NHS/EDC). All active sites were inactivated and blocked with ethanolamine. A single cycle approach at a flow rate of 30 µl/min was used for kinetic analysis by injecting five increasing concentrations of each compound (0.5–40 nM) consecutively without regeneration in-between injections. Individual injections within a cycle were 120 s long with a 60 sec dissociation phase between injections. After the highest concentration of each derivative, a dissociation period of 6,000–14,400 sec was added to ensure complete dissociation in absence of suitable regeneration method. […] Signals from the reference cell from an ensemble of buffer blank injections were subtracted to correct for buffer effects and injection artefacts. Kinetic data was processed with the Biacore T200 Software (version 3.1; Cytiva) using a single-cycle evaluation setup by global fitting each data set to a 1:1 Langmuir binding model. Association and dissociation rate constants (ka and kd, respectively) were fitted, and the equilibration constant KD was calculated based on the following equation: KD = kd/ka. Each assay was performed at least twice and in duplicate injections.
A general note: SPR reads the build-up and loss of mass on a sensor chip optically.

[1] abbreviates: Table 1, amine-reactive immobilized C3b, 25 °C, average±SD of three independent SPR experiments, read-out: KD.
The mark [2] stands for this setting: pH 7.4, read-out: ka, Dataset 1.
[3] abbreviates: pH 7.4, read-out: ka, Dataset 3.
The mark [4] stands for this setting: source data of Table 1, single SPR dataset 1, read-out: KD, Dataset 1.
Where [5] appears, read: source data of Table 1, single SPR dataset 2, read-out: KD, Dataset 2.
Where [6] appears, read: source data of Table 1, single SPR dataset 3, read-out: KD, Dataset 3.
The mark [7] stands for this setting: pH 7.4, read-out: ka, Dataset 2.

T1 sequence (P01024 23-667 limits assumed): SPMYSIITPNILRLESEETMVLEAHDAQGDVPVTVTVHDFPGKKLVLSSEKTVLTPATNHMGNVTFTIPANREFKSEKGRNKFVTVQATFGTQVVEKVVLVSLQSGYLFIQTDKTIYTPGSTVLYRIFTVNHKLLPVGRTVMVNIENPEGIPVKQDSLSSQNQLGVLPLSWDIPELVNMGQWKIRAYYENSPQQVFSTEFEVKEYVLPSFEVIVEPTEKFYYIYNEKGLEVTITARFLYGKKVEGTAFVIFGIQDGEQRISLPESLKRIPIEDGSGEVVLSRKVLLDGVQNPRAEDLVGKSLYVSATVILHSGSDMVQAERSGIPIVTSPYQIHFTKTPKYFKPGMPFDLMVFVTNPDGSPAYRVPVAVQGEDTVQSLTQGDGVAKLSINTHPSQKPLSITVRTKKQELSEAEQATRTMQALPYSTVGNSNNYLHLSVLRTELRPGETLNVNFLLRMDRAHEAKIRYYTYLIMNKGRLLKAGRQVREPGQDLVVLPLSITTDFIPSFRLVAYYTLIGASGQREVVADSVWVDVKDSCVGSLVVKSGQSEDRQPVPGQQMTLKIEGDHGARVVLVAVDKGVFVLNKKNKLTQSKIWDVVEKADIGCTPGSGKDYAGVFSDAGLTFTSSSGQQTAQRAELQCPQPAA
T1 sequence (P01024 749-1663 limits assumed): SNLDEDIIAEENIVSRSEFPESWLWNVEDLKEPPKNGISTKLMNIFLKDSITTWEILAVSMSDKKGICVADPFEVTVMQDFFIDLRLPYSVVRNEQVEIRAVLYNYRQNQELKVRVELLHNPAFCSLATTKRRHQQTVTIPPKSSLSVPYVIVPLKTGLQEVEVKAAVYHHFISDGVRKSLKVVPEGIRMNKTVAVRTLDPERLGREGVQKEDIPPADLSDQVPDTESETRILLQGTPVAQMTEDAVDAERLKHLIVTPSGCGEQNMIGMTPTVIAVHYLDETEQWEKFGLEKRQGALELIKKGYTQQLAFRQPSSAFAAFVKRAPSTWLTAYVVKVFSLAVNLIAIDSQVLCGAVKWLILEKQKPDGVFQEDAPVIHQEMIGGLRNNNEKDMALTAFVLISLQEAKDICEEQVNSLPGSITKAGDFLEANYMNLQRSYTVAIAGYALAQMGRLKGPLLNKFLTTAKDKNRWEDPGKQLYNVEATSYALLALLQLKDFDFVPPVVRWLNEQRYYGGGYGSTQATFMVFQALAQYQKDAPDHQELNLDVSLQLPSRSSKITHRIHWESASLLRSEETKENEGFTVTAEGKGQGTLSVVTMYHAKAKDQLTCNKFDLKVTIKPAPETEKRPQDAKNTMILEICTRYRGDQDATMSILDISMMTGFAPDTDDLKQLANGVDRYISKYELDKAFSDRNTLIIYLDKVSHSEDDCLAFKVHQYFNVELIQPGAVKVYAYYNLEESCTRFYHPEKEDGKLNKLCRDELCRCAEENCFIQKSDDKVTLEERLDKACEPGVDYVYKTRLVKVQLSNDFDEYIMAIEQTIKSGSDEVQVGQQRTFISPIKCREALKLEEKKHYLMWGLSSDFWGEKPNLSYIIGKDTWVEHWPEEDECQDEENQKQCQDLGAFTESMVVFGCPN

Regarding `CC[C@H](C)[C@H](NC(=O)[C@H](C)N)C(=O)N[C@H]1CSSC[C@@H](C(=O)N(C)[C@H](C(N)=O)[C@@H](C)CC)NC(=O)[C@H](CCCNC(=N)N)NC(=O)[C@H](Cc2c[nH]cn2)NC(=O)[C@H](C)NC(=O)CN(C)C(=O)[C@H](Cc2c[nH]c3ccccc23)NC(=O)[C@H](CC(=O)O)NC(=O)[C@H](CCC(N)=O)NC(=O)[C@H](Cc2cn(C)c3ccccc23)NC(=O)[C@H](C(C)C)NC1=O` [Cp40 y1A] (H-AICV[Trp(1-Me)]QDW[Sar]AHRC[NMeI]-NH2; disulfide 3-13), the Kd reads like this: under setting [1], 3.8 ± 0.5 nM; under setting [4], 4.11 nM; under setting [5], 4.27 nM; under setting [6], 3.1 nM. For the same molecule, the kon (pH 7.4, read-out: ka) turned out to be 400000 M⁻¹ s⁻¹; the kon under setting [2] is 470000 M⁻¹ s⁻¹; the kon under setting [3] was 290000 M⁻¹ s⁻¹.

For the molecule `CC[C@H](C)[C@H](NC(C)=O)C(=O)N[C@H]1CSSC[C@@H](C(=O)N(C)[C@H](C(N)=O)[C@@H](C)CC)NC(=O)[C@H](CCCNC(=N)N)NC(=O)[C@H](Cc2c[nH]cn2)NC(=O)[C@H](C)NC(=O)CN(C)C(=O)[C@H](Cc2c[nH]c3ccccc23)NC(=O)[C@H](CC(=O)O)NC(=O)[C@H](CCC(N)=O)NC(=O)[C@H](Cc2cn(C)c3ccccc23)NC(=O)[C@H](C(C)C)NC1=O` [Cp20, reference compound], the dissociation constant (Kd) by setting is: under setting [1], 3.4 ± 0.6 nM; under setting [4], 3.78 nM; under setting [5], 2.6 nM; under setting [6], 3.76 nM. The kon is, setting by setting: (pH 7.4, read-out: ka) 1.3e+06 ± 300000 M⁻¹ s⁻¹; under setting [2], 1.63e+06 M⁻¹ s⁻¹; under setting [7], 1.23e+06 M⁻¹ s⁻¹; under setting [3], 960000 M⁻¹ s⁻¹.

`CC[C@H](C)[C@H](NC(=O)[C@@H](C)N)C(=O)N[C@H]1CSSC[C@@H](C(=O)N(C)[C@H](C(N)=O)[C@@H](C)CC)NC(=O)[C@H](CCCNC(=N)N)NC(=O)[C@H](Cc2c[nH]cn2)NC(=O)[C@H](C)NC(=O)CN(C)C(=O)[C@H](Cc2c[nH]c3ccccc23)NC(=O)[C@H](CC(=O)O)NC(=O)[C@H](CCC(N)=O)NC(=O)[C@H](Cc2cn(C)c3ccccc23)NC(=O)[C@H](C(C)C)NC1=O` [Cp40 y1a]: for the setting “Table 1, amine-reactive immobilized C3b, 25 °C, average±SD of three independent SPR experiments”, the kd is 2.3 ± 0.4 10^−3 s^−1. The dissociation constant (Kd) is, setting by setting: under setting [1], 2.9 ± 0.6 nM; under setting [4], 2.19 nM; under setting [5], 2.99 nM; under setting [6], 3.63 nM. Further, the kon runs as follows: (pH 7.4, read-out: ka) 800000 ± 100000 M⁻¹ s⁻¹; under setting [2], 840000 M⁻¹ s⁻¹; under setting [7], 920000 M⁻¹ s⁻¹; under setting [3], 650000 M⁻¹ s⁻¹. Moreover, the “kd, Dataset 1” value (source data of Table 1, single SPR dataset 1) is recorded as 1.85 10-3 s-1. The “kd, Dataset 2” value (source data of Table 1, single SPR dataset 2) is 2.77 10-3 s-1. Also, the “kd, Dataset 3” value (source data of Table 1, single SPR dataset 3) is reported as 2.36 10-3 s-1.

Regarding `CC[C@H](C)[C@H](NC(=O)[C@H](N)Cc1ccc(O)cc1)C(=O)N[C@H]1CSSC[C@@H](C(=O)N(C)[C@H](C(N)=O)[C@@H](C)CC)NC(=O)[C@H](CCCNC(=N)N)NC(=O)[C@H](Cc2c[nH]cn2)NC(=O)[C@H](C)NC(=O)CN(C)C(=O)[C@H](Cc2c[nH]c3ccccc23)NC(=O)[C@H](CO)NC(=O)[C@H](CCC(N)=O)NC(=O)[C@H](Cc2cn(C)c3ccccc23)NC(=O)[C@H](C(C)C)NC1=O` [Cp40 D7S] (H-[dY]ICV[Trp(1-Me)]QSW[Sar]AHRC[NMeI]-NH2; disulfide 3-13), the equilibrium dissociation constant (Kd) by setting is: under setting [1], 5.6 ± 1.3 nM; under setting [4], 4.85 nM; under setting [5], 7.48 nM; under setting [6], 4.45 nM. In addition, the kon runs as follows: (pH 7.4, read-out: ka) 100000 M⁻¹ s⁻¹; under setting [2], 80000 M⁻¹ s⁻¹; under setting [7], 50000 M⁻¹ s⁻¹; under setting [3], 170000 M⁻¹ s⁻¹.

Regarding `CC[C@H](C)[C@H](NC(=O)[C@H](N)Cc1ccc(O)cc1)C(=O)N[C@H]1CSSC[C@@H](C(=O)N[C@@H](C)C(N)=O)NC(=O)[C@H](CCCNC(=N)N)NC(=O)[C@H](Cc2c[nH]cn2)NC(=O)[C@H](C)NC(=O)CN(C)C(=O)[C@H](Cc2c[nH]c3ccccc23)NC(=O)[C@H](CC(=O)O)NC(=O)[C@H](CCC(N)=O)NC(=O)[C@H](Cc2cn(C)c3ccccc23)NC(=O)[C@H](C(C)C)NC1=O` [Cp40 mI14A] (H-[dY]ICV[Trp(1-Me)]QDW[Sar]AHRCA-NH2; disulfide 3-13), the kon is, setting by setting: (pH 7.4, read-out: ka) 3e+06 ± 1.6e+06 M⁻¹ s⁻¹; under setting [2], 4.23e+06 M⁻¹ s⁻¹; under setting [7], 1.11e+06 M⁻¹ s⁻¹; under setting [3], 3.53e+06 M⁻¹ s⁻¹.
